According to patent US20100311800A1, “ANGIOTENSIN II RECEPTOR ANTAGONISTS” (priority 2008, published 2010):

Tests used:
[1] = system: isolated rabbit thoracic aorta preparations; experiment: Assay on vascular tone (vessel relaxation assay); assay type: cell-based; details: Oryctolagus cuniculus; aortic rings precontracted with noradrenaline 1 μM, functional endothelium
Experimental: The ability of the compounds of the invention to induce vasorelaxation in comparison to native angiotensin II receptor blockers (ARBs) was tested in vitro in isolated rabbit thoracic aorta preparations (Wanstall J. C. et al., Br. J. Pharmacol., 134:463-472, 2001). Male New Zealand rabbits were anaesthetized with thiopental-Na (50 mg/kg, iv), sacrificed by exsanguinations and then the thorax was opened and the aorta dissected. Aortic ring preparations (4 mm in length) were set up in physiological salt solution (PSS) at 37° C. in small organ chambers (5 ml). The composition of PSS was (mM): NaCl 130, NaHCO3 14.9, KH2PO4 1.2, MgSO4 1.2, HEPES 10, CaCl2, ascorbic acid […] and glucose 1.1 (95% O2/5% CO2; pH 7.4). Each ring was mounted under 2 g passive tension. Isometric tension was recorded with a Grass transducer (Grass FT03) attached to a BIOPAC MP150 System. Preparations were allowed to equilibrate for 1 h, and then contracted submaximally with noradrenaline (NA, 1 μM) and, when the contraction was stable, acetylcholine (ACh, 10 μM) was added. A relaxant response to ACh indicated the presence of a functional endothelium. […] When a stable precontraction was reached, a cumulative concentration-response curve to either of the vasorelaxant agents was obtained in the presence of a functional endothelium. Each arterial ring was exposed to only one combination of inhibitor and vasorelaxant. Moreover, the effect of the soluble guanylyl cyclase inhibitor ODQ (1-H-(1,2,4)-oxadiazol(4,3-a)quinoxalin-1-one) on vasorelaxation elicited by the compounds was examined preincubating the aortic rings with ODQ (10 μM) for 20 min.
Responses to relaxing agents are expressed as a percentage of residual contraction and plotted against concentration of test compound. EC50 values (where EC50 is the concentration producing 50% of the maximum relaxation to the test compound) were interpolated from these plots. During the experimental period, the plateau obtained with NA was stable without significant spontaneous loss of contraction in the aortic rings.
Furthermore, in experiments performed in the presence of ODQ (10 μM), the vasorelaxant responses to tested compounds were inhibited.

[2] = system: conscious spontaneously hypertensive rats (SHRs); experiment: Assay for antihypertensive activity (in vivo); parameters: species or system rat; details: for BP lowering compared to Compound A: SHR, same dose (10 mg/kg) or inferior dose (3 mg/kg)
Experimental: The ability of the compounds of the invention to decrease blood pressure was evaluated in conscious spontaneously hypertensive rats (SHRs). SHRs (250-300 g) received a single oral dose of tested compounds. Systolic blood pressure (SBP) and heart rate were monitored by telemetry for 24 hours after dosing. SBP was evaluated before (baseline) and at different time points (i.e. 2-6, 12, 21-hours) following treatment by oral administration of the compounds. The data were processed both as the absolute value or as a delta between the absolute value and its own baseline.
The Dataquest IV telemetry system (Data Sciences International) was used for measurement of systolic pressure, diastolic pressure, mean arterial pressure, heart rate, and motor activity. The monitoring system consists of a transmitter (radio frequency transducer model TA11PA), receiver panel, consolidation matrix, and personal computer with accompanying software. Before the device was implanted, calibrations were verified to be accurate within ±3 mmHg. Rats were anesthetized with ketamine/xylazine/acepromazine, and the flexible catheter of the transmitter was surgically secured in the abdominal aorta just below the renal arteries. The transmitter was sutured subcutaneously. Rats were housed in individual cages after the operation. Each cage was placed over the receiver panel that was connected to the personal computer for data acquisition. The rats were unrestrained and free to move within their cages. Hemodynamic data were sampled every 2 minutes for 10 seconds.

[3] = system: Reactive Nitrogen Species (RNS); experiment: Assay for Reactive Nitrogen Species (RNS) (DAN assay); assay type: in vivo, rat; parameters: RNS levels: unit not given here; details: for RNS levels: EDTA-treated rat plasma
Text: RNS were detected as S-nitrosothiols (RNSOs) in EDTA-treated rat plasma using an HPLC fluorescent assay based on the method of Kostka and Park (Methods Enzymol. 1999, 301, 227-235). The method is based on the detection of fluorescent 2,3-naphthotriazole (NAT) formed in the reaction between acidified 2,3-diaminonaphthalene (DAN) and the nitrosonium moiety of RSNOs released by HgCl2-mediated breakdown of the S—NO bond. The reaction mixture was chromatographed by reversed phase HPLC, and the fluorescent signal of the resolved NAT peak was quantified.
Plasma (20 μL) was first diluted 1:1 in H2O (20 μL) in a black polypropylene untreated microtiter plate. DAN reagent (100 μL per well, 100 μM DAN in 0.1 N HCl, 4 mM HgCl2) was added, and the plate was immediately sealed with an opaque plate mat, vortexed, and incubated in the dark for 10 min. Plates were centrifuged (2000×g, 5 min) and chilled to 4° C. before HPLC analysis. HPLC was carried out on an Agilent 1200 system using a chilled autosampler (4° C.). Samples were chromatographed on a C8 column (Zorbax Eclipse XDB-C8, 4.6×150 mm, 5 μm) with isocratic elution using a mobile phase of 67% MeOH, 0.1% NH4OAc and a flow rate of 2 mL/min. NAT fluorescence was monitored at 450 nm using an excitation wavelength of 360 nm. Calibration curves were prepared using NaNO2 in control plasma. Typical range of quantitation was 0.1 μM to 30 μM NO2.

[4] = 10 mpk single oral dose, 21-24 h
[5] = 3 mpk single oral dose, 21-24 h

| Structure (SMILES) | EC50 [1] [µM] | Δ SBP in SHR ([2]; 10 mpk single oral dose, 2-6 h) [mmHg] | Δ SBP in SHR [2, 4] [mmHg] | Δ SBP in SHR ([2]; 10 mpk single oral dose, 12 h) [mmHg] | BP lowering compared to Compound A [2] | also measured |
| --- | --- | --- | --- | --- | --- | --- |
| CCCCc1nc(Cl)c(C(=O)OC(C)OC(=O)OCCCCC(C)O[N+](=O)[O-])n1Cc1ccc(-c2ccccc2-c2nn[nH]n2)cc1 (centres unmarked) [Example 4, 1-[({[5-(nitrooxy)hexyl]oxy}carbonyl)oxy]ethyl 2-butyl-4-chloro-1-{[2′-(1H-tetrazol-5-yl)biphenyl-4-yl]methyl}-1H-imidazole-5-carboxylate] | 27 | −10 | −30 | −30 | extended peak effect and duration of action | RNS levels ([3]; time 0 h): 0.9; RNS levels ([3]; time 1 h): 6.9; RNS levels ([3]; time 3 h): 6.9; RNS levels ([3]; time 6 h): 2.4; RNS levels ([3]; time 24 h): 1.6; RNS levels compared to Compound A ([3]; rat plasma): improved RNS levels |
| CCOc1nc2cccc(C(=O)OC(C)OC(=O)CCCC(C)O[N+](=O)[O-])c2n1Cc1ccc(-c2ccccc2-c2nn[nH]n2)cc1 (centres unmarked) [Example 9] | 43 | – | – | – | extended peak effect and duration of action | Δ SBP in SHR ([2]; 3 mpk single oral dose, 2-6 h): −43 mmHg; Δ SBP in SHR [2, 5]: −50 mmHg; Δ SBP in SHR ([2]; 3 mpk single oral dose, 12 h): −49 mmHg |
| CCCCc1nc(Cl)c(C(=O)OC(C)OC(=O)OCC[C@H](C)O[N+](=O)[O-])n1Cc1ccc(-c2ccccc2-c2nn[nH]n2)cc1 (stereo partly drawn) [Example 7, 1-[({[(3S)-3-(nitrooxy)butyl]oxy}carbonyl)oxy]ethyl 2-butyl-4-chloro-1-{[2′-(1H-tetrazol-5-yl)biphenyl-4-yl]methyl}-1H-imidazole-5-carboxylate] | 26 | – | – | – | – | – |
| CCCCc1nc(Cl)c(C(=O)OC(C)OC(=O)OCCCC[C@H](C)O[N+](=O)[O-])n1Cc1ccc(-c2ccccc2-c2nn[nH]n2)cc1 (stereo partly drawn) [Example 3, 1-[({[(5S)-5-(nitrooxy)hexyl]oxy}carbonyl)oxy]ethyl 2-butyl-4-chloro-1-{[2′-(1H-tetrazol-5-yl)biphenyl-4-yl]methyl}-1H-imidazole-5-carboxylate] | 39 | – | – | – | – | – |
| CCCCc1nc(Cl)c(C(=O)OC(C)OC(=O)OCCC(C)O[N+](=O)[O-])n1Cc1ccc(-c2ccccc2-c2nn[nH]n2)cc1 (centres unmarked) [Example 5, 1-[({[3-(nitrooxy)butyl]oxy}carbonyl)oxy]ethyl 2-butyl-4-chloro-1-{[2′-(1H-tetrazol-5-yl)biphenyl-4-yl]methyl}-1H-imidazole-5-carboxylate] | 22 | – | – | – | – | – |
| CCCCc1nc(Cl)c(C(=O)OCCOCCO[N+](=O)[O-])n1Cc1ccc(-c2ccccc2-c2nn[nH]n2)cc1 [Compound A, reference compound] | – | −15 | −8 | −12 | – | RNS levels ([3]; time 0 h): 0.4; RNS levels ([3]; time 1 h): 2.8; RNS levels ([3]; time 3 h): 1.4; RNS levels ([3]; time 6 h): 0.9; RNS levels ([3]; time 24 h): 0 |
| CCCCc1nc(Cl)c(C(=O)OC(C)OC(=O)OCCCC[C@@H](C)O[N+](=O)[O-])n1Cc1ccc(-c2ccccc2-c2nnn[nH]2)cc1 (stereo partly drawn) [Example 1, 1-[({[(R)-5-(nitrooxy)hexyl]oxy}carbonyl)oxy]ethyl 2-butyl-4-chloro-1-{[2′-(1H-tetrazol-5-yl)biphenyl-4-yl]methyl}-1H-imidazole-5-carboxylate] | 22 | – | – | – | – | – |
| CCCCc1nc(Cl)c(C(=O)OC(C)OC(=O)OCC[C@@H](C)O[N+](=O)[O-])n1Cc1ccc(-c2ccccc2-c2nn[nH]n2)cc1 (stereo partly drawn) [Example 6, 1-[({[(3R)-3-(nitrooxy)butyl]oxy}carbonyl)oxy]ethyl 2-butyl-4-chloro-1-{[2′-(1H-tetrazol-5-yl)biphenyl-4-yl]methyl}-1H-imidazole-5-carboxylate] | 23 | −16 | −17 | −21 | extended peak effect and duration of action | – |
| CCOc1nc2cccc(C(=O)OC(C)(C)OC(=O)OCCCCC(C)O[N+](=O)[O-])c2n1Cc1ccc(-c2ccccc2-c2nnn[nH]2)cc1 (centres unmarked) [Example 2] | 31 | – | – | – | extended peak effect and duration of action | Δ SBP in SHR ([2]; 3 mpk single oral dose, 2-6 h): −30 mmHg; Δ SBP in SHR [2, 5]: −36 mmHg; Δ SBP in SHR ([2]; 3 mpk single oral dose, 12 h): −34 mmHg |
| CCCCc1nc(Cl)c(C(=O)OC(C)OC(=O)CCCC(C)O[N+](=O)[O-])n1Cc1ccc(-c2ccccc2-c2nn[nH]n2)cc1 (centres unmarked) [Example 8] | 40 | −31 | −28 | −29 | extended peak effect and duration of action | – |
| CCCCc1nc(Cl)c(COC(=O)C23CC4CC(CC(O[N+](=O)[O-])(C4)C2)C3)n1Cc1ccc(-c2ccccc2-c2nnn[nH]2)cc1 [Example 10, (2-butyl-4-chloro-1-{[2′-(1H-tetrazol-5-yl)biphenyl-4-yl]methyl}-1H-imidazol-5-yl)methyl 3-(nitrooxy)adamantane-1-carboxylate] | 5.3 | – | – | – | – | – |
